In ChEMBL document CHEMBL2021783, “Inhibition of cholinesterase activity and amyloid aggregation by berberine-phenyl-benzoheterocyclic and tacrine-phenyl-benzoheterocyclic hybrids” (Bioorg Med Chem, 2012) one finds inhibition, IC50 and Ratio IC50 data, which are given here for 19 compounds.

What is called inhibition is the percentage by which the read-out fell short of the control. The term IC50 denotes the point on the concentration scale where inhibition reaches its midpoint. High values mean weaker potency in that assay, low ones greater potency in that assay.

The nature of experiment [1]: Inhibition of amyloid beta (1 to 42) self aggregation at 20 uM after 48 hrs by thioflavin T fluorescence assay.
Experiment [2] has as its target Acetylcholinesterase (Electrophorus electricus, UniProt O42275).
Description: Inhibition of electric eel AChE using acetylcholine as substrate by Ellman's method
For experiment [3], the target named is Cholinesterase (Equus caballus, UniProt P81908).
Chain of Cholinesterase (P81908 whole entry): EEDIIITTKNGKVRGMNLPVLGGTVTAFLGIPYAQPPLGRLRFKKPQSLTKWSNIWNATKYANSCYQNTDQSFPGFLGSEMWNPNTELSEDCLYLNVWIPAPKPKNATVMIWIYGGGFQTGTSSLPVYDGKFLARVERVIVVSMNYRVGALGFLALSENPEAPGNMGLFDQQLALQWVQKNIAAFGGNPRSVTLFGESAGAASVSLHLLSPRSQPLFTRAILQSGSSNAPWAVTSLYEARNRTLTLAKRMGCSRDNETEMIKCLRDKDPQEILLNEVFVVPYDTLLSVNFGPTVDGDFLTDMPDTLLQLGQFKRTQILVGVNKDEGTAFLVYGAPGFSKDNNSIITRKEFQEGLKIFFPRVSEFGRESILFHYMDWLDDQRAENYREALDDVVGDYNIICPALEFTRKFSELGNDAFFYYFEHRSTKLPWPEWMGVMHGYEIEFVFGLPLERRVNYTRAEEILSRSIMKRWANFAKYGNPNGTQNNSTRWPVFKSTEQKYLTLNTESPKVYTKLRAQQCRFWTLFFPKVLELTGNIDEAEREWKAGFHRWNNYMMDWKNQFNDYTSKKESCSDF
Description: Inhibition of equine serum BuChE using butyrylcholine as substrate by Ellman's method
For experiment [4], the target named is Acetylcholinesterase (Electrophorus electricus) (UniProt O42275). The experiment in a line: Mixed-type inhibition of electric eel AChE using acetylcholine as substrate after 15 mins by Lineweaver-Burk plot analysis.
Chain of Acetylcholinesterase (Electrophorus electricus) (O42275 24-633 limits assumed): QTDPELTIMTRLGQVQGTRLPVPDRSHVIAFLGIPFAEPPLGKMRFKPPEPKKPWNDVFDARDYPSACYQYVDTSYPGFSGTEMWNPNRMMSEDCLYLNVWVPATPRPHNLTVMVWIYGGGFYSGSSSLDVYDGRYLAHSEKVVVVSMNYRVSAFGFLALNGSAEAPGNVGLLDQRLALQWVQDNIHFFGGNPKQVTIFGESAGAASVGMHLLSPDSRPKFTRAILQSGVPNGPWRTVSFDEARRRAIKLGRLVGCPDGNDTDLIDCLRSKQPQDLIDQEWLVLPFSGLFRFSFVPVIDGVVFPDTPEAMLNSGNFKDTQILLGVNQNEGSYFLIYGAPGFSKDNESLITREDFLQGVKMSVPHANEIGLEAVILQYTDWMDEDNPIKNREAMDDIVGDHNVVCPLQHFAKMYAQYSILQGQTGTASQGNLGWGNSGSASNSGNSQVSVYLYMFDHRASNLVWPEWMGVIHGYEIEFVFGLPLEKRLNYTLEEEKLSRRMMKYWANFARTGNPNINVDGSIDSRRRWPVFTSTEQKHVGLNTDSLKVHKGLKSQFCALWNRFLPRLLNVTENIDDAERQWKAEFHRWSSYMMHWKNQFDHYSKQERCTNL
Experiment [5] shares this target. The experiment in a line: Ratio of IC50 for tarcine to compound for electric eel AChE using acetylcholine as substrate by Ellman's method.

The structures appear in SMILES notation. Active and inactive are the calls of the source. No cut-off for these calls is given here.

Chain of Acetylcholinesterase (O42275 whole entry): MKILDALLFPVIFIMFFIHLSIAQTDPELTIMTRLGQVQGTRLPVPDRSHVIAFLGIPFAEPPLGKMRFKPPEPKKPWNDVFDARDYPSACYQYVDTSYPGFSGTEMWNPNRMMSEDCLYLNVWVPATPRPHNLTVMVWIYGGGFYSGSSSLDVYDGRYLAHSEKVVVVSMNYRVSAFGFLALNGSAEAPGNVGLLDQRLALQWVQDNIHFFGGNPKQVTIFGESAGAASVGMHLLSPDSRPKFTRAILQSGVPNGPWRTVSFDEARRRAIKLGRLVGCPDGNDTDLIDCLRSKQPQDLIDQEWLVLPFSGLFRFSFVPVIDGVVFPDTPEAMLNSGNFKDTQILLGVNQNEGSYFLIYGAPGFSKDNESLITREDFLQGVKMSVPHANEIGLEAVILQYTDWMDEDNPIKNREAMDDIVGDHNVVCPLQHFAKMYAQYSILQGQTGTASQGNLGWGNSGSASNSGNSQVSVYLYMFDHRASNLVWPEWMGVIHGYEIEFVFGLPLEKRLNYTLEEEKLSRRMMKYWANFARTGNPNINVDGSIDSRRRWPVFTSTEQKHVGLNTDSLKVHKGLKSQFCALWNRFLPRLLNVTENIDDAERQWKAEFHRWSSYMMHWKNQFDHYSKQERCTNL

`COc1ccc2cc3[n+](cc2c1OC)CCc1cc2c(cc1-3)OCO2` showed an inhibition in experiment [1] of 36.3%.
For `COc1ccc2cc3[n+](cc2c1OCCOc1ccc(-c2cc4ccccc4o2)cc1)CCc1cc2c(cc1-3)OCO2`, the IC50 in experiment [2] was found to be 3.59 µM.
On the same count and under the same terms, for `COc1ccc2cc3[n+](cc2c1OCCOc1ccc(-c2nc4ccccc4o2)cc1)CCc1cc2c(cc1-3)OCO2` the value was 3.3 µM.
On to `COc1ccc2cc3[n+](cc2c1OCCCOc1ccc(-c2cc4ccccc4[nH]2)cc1)CCc1cc2c(cc1-3)OCO2`, for which the IC50 stood at 0.711 µM in experiment [3] and 0.774 µM in experiment [2].
With `c1ccc2oc(-c3ccc(OCCCNc4c5c(nc6ccccc46)CCCC5)cc3)nc2c1`, the results for the IC50 in experiment [3] and in experiment [2] were 0.352 µM and 0.475 µM, respectively. The same compound returned an inhibition in experiment [1] of 57.6%.
On to `COc1ccc2cc3[n+](cc2c1OCCOc1ccc(-c2nc4ccccc4s2)cc1)CCc1cc2c(cc1-3)OCO2`, for which the IC50 in experiment [3] amounted to 0.175 µM; in experiment [2], 1.64 µM.
In the case of `c1ccc2sc(-c3ccc(OCCCCCNc4c5c(nc6ccccc46)CCCC5)cc3)nc2c1`, the IC50 in experiment [3] was determined as 0.171 µM; in experiment [2] it was 0.04 µM. The inhibition in experiment [1] amounted to 40.7%.
In the case of `c1ccc2sc(-c3ccc(OCCCNc4c5c(nc6ccccc46)CCCC5)cc3)nc2c1`, the IC50 worked out at 0.122 µM in experiment [3] and 0.017 µM in experiment [2]. Besides, the inhibition in experiment [1] was 51.8%. For the same compound, the inhibition result in experiment [4] is “Active”. Also, in experiment [5], the Ratio IC50 was found to be 18.
Regarding `c1ccc2sc(-c3ccc(OCCCCCCNc4c5c(nc6ccccc46)CCCC5)cc3)nc2c1`, the IC50 in experiment [3] was 0.082 µM; in experiment [2], 0.093 µM. This compound displayed an inhibition in experiment [1] of 41.9%.
Turning to `c1ccc2oc(-c3ccc(OCCCNc4c5c(nc6ccccc46)CCCC5)cc3)cc2c1`, the 50% inhibitory concentration (IC50) in experiment [3] was determined as 0.156 µM; in experiment [2] it was 0.058 µM. For the same compound, in experiment [1], the inhibition is 62.8%.
Compound `COc1ccc2cc3[n+](cc2c1OCCOc1ccc(-c2cc4ccccc4[nH]2)cc1)CCc1cc2c(cc1-3)OCO2` registered an IC50 in experiment [2] of 1.07 µM.
For the compound `COc1ccc2cc3[n+](cc2c1OCCCNC(=O)c1cc2ccccc2[nH]1)CCc1cc2c(cc1-3)OCO2`, the IC50 in experiment [3] was found to be 2.19 µM; in experiment [2] it was 0.976 µM. The compound further came in with an inhibition in experiment [1] of 73.5%.
On to `c1ccc2sc(-c3ccc(OCCCCNc4c5c(nc6ccccc46)CCCC5)cc3)nc2c1`, for which the concentration for half-maximal inhibition (IC50) is 0.186 µM in experiment [3] and 0.105 µM in experiment [2]. Further, the inhibition in experiment [1] was determined as 37.8%.
`COc1ccc2cc3[n+](cc2c1OCCCNC(=O)c1cc2ccccc2o1)CCc1cc2c(cc1-3)OCO2`: the IC50 in experiment [3] stood at 1.54 µM; in experiment [2], 1.94 µM. For the same compound, the inhibition in experiment [1] came to 69.1%.
In the case of `COc1ccc2cc3[n+](cc2c1OCCCOc1ccc(-c2nc4ccccc4o2)cc1)CCc1cc2c(cc1-3)OCO2`, the concentration for half-maximal inhibition (IC50) in experiment [3] worked out at 0.639 µM; in experiment [2] it was 2.12 µM.
As for `COc1ccc2cc3[n+](cc2c1OCCCOc1ccc(-c2nc4ccccc4s2)cc1)CCc1cc2c(cc1-3)OCO2`, the IC50 is 0.587 µM in experiment [3] and 1.48 µM in experiment [2]. In experiment [1], this compound registered an inhibition of 79.2%.
Turning to `c1ccc2oc(-c3ccc(OCCCCNc4c5c(nc6ccccc46)CCCC5)cc3)nc2c1`, the figures for the IC50 in experiment [3] and in experiment [2] were 0.207 µM and 0.947 µM, respectively. In experiment [1], this compound had an inhibition of 33.2%.
With `COc1ccc2cc3[n+](cc2c1OCCCOc1ccc(-c2cc4ccccc4o2)cc1)CCc1cc2c(cc1-3)OCO2`, the half-maximal inhibitory concentration (IC50) in experiment [3] came out at 0.99 µM; in experiment [2], 1.92 µM. The same compound had an inhibition in experiment [1] of 84.6%.
The corresponding values for `c1ccc2oc(-c3ccc(OCCCCNc4c5c(nc6ccccc46)CCCC5)cc3)cc2c1` are 0.238 µM, 0.201 µM and 46.3%.
